Test results from patent publication US10258610B2, “Pharmaceutical compositions comprising rifaximin, processes for their preparation and their use in the treatment of vaginal infections” (ALFASIGMA S.P.A., priority 2011, dated 2019).
Read-outs that look alike come from different tables or passages of the source.

Key:
vaginal microbiota = test: Vaginal microbiota by PCR-DGGE (cluster analysis, Similarity Index, Richness Index); type: in vivo, human; design: key to Similarity Index V1-V3 / Similarity Index V1-V4 / Similarity Index V3-V4 / Similarity Index V1-V3-V4: % similarity between DGGE profiles (Pearson correlation)
Protocol: During the clinical trial samples of vaginal rinses were taken, and the composition of vaginal microbiota was determined by means of the PCR-DGGE technique, allowing the identification of various bacterial DNA through an electrophoretic process and a DNA amplification with universal primers for the bacterial 16S rRNA region. The result of this technique was a sequence of visible bands, called clusters, wherein each of them is representative for the DNA of bacterial species present in the considered sample. The analysis of clusters of DGGE profiles of samples, carried out by using the FPQuest software (Bio-Rad) gives the information relating to the similarity of two samples. In the specific case wherein the recovery is intended as reduction of pathogenic species, it is positive that the sample of a patient after treatment is quite different from the sample of the same patient before treatment. The analysis was carried out with vaginal samples at the visits V1, V3 and V4 for the four groups A, B, C and D of treated patients. In order to evaluate the pharmacological action of the examined rifaximin preparations, different treatment groups were compared through the so called Similarity Indexes (SI). The analysis consists in evaluating the similarity of electrophoretic profiles calculated on the basis of the Pearson correlation coefficient. In the examined case, SI indicates the percent similarity between two or more DGGE profiles belonging to the same person at the different visits. Another adopted criterion of evaluation of the samples is the so called Richness Index (RI). This criterion, based on the bands of each DGGE profile, gives the measure of the complexity of the bacterial population, which is a sign of disease for the occurrence of new pathogenic species. Table 32 reports the RI average values, measured at the visits V1 and V3.

Gardnerella vaginalis = type: in vivo, New Zealand rabbits (Oryctolagus cunicolis)
Protocol: The efficacy of vaginal compositions in rifaximin containing tablets and ovules was evaluated in an animal model of bacterial infection persistent in the rabbit.
The vaginal infection model was induced by inoculation of Gardnerella vaginalis isolated from women affected by bacterial vaginosis. The bacterial strains were grown in agar of bovine red blood cells at 37° C. by adding a DIFCO-C supplement and were kept under controlled atmosphere 5% CO2 for 24-48 hours.
For developing the model of animal infection, New Zealand rabbits (Oryctolagus cunicolis) having a weight comprised between 2 and 3 kg were used.
Before the infection, the animals had been treated with 1 ml 10% enrofloxacin solution for reducing the endogenous Lactobacilli and facilitating the growth of pathogenic agent. The infection was induced by inoculating in the animals vagina 1 ml of sterile saline solution containing 106-7 UFC (Unit Forming Colony) of Gardnerella vaginalis by using a 22-24G Teflon catheter. The presence of G. vaginalis in the animals was verified before the inoculation and 24 and 48 hours after the inoculation.
The animals were inoculated twice and thrice at time intervals of three days. After 14 days the last inoculation all animals were treated with 1 ml 10% enrofloxacin solution to verify the model sensitivity to antibiotics. The treatment healed the infection, thus confirming that the model can be used to evaluate the efficacy of antibiotics administered via the intravaginal route.
The presence of G. vaginalis was verified by vaginal buffer 1, 2, 4, 10 and 14 days after the last inoculation, putting the vaginal buffers in agar plates of bovine red blood cells with DIFCO-C supplement and growing them at 37° C. for 48 hours. The presence of G. vaginalis was verified by means of microscope (1000×) morphological identification and with Gram staining.
Three and seven days after the end of the rifaximin treatment, the presence of Gardnerella vaginalis was evaluated by means of vaginal buffers as previously described.
The vaginal buffers were considered positive if 10 or more colonies were counted, and the presence of malodorous vaginal discharges was the clinical sign of the occurred infection.

[1] = Group A: 1 tablet 100 mg × 5 days
[2] = Group B: 1 tablet 25 mg × 5 days
[3] = Group C: 1 tablet 100 mg × 2 days

Structure (SMILES): CO[C@H]1/C=C/O[C@@]2(C)Oc3c(C)c(O)c4c(O)c(c5c(nc6cc(C)ccn65)c4c3C2=O)NC(=O)/C(C)=C\C=C\[C@H](C)[C@H](O)[C@@H](C)[C@@H](O)[C@@H](C)[C@H](OC(C)=O)[C@@H]1C [Rifaximin]
- Percent of patients with clusterizing profiles, V1 vs. V3 (vaginal microbiota; [1]): 37%
- Percent of patients with clusterizing profiles, V1 vs. V3 vs. V4 (vaginal microbiota; [1]): 0%
- Similarity Index V1-V3 (vaginal microbiota; [1]): 61.6
- Similarity Index V1-V3-V4 (vaginal microbiota; [1]): 50.8
- Similarity Index V1-V4 (vaginal microbiota; [1]): 52.1
- Similarity Index V3-V4 (vaginal microbiota; [1]): 66.8
- Percent of patients with clusterizing profiles, V1 vs. V3 (vaginal microbiota; [2]): 24%
- Percent of patients with clusterizing profiles, V1 vs. V3 vs. V4 (vaginal microbiota; [2]): 0%
- Similarity Index V1-V3 (vaginal microbiota; [2]): 48.4
- Similarity Index V1-V3-V4 (vaginal microbiota; [2]): 36.4
- Similarity Index V1-V4 (vaginal microbiota; [2]): 40.0
- Similarity Index V3-V4 (vaginal microbiota; [2]): 62.1
- Percent of patients with clusterizing profiles, V1 vs. V3 (vaginal microbiota; [3]): 28%
- Percent of patients with clusterizing profiles, V1 vs. V3 vs. V4 (vaginal microbiota; [3]): 11%
- Similarity Index V1-V3 (vaginal microbiota; [3]): 54.0
- Similarity Index V1-V3-V4 (vaginal microbiota; [3]): 37.6
- Similarity Index V1-V4 (vaginal microbiota; [3]): 47.1
- Similarity Index V3-V4 (vaginal microbiota; [3]): 42.8
- Richness Index (vaginal microbiota; visit V1 (before therapy), Group A: 1 tablet 100 mg × 5 days): 13.5
- Richness Index (vaginal microbiota; visit V1 (before therapy), Group B: 1 tablet 25 mg × 5 days): 14.0
- Richness Index (vaginal microbiota; visit V1 (before therapy), Group C: 1 tablet 100 mg × 2 days): 15.4
- Richness Index (vaginal microbiota; visit V3, Group A: 1 tablet 100 mg × 5 days): 10.9
- Richness Index (vaginal microbiota; visit V3, Group B: 1 tablet 25 mg × 5 days): 10.7
- Richness Index (vaginal microbiota; visit V3, Group C: 1 tablet 100 mg × 2 days): 12.2
- adverse event during treatment (Gardnerella vaginalis; rabbit, in vivo): No adverse event was observed
- eradication of the infection (presence of Gardnerella vaginalis) (Gardnerella vaginalis; seven days after the end of the treatment, tablets and ovules, 1.5 to 12.5 mg): negative for 7 days after the end of the treatment
- Eradication (Gardnerella vaginalis; vaginal ovules, rifaximin dose 1.5 mg, after 3 days): 100%
- Eradication (Gardnerella vaginalis; vaginal ovules, rifaximin dose 1.5 mg, after 7 days): 100%
- Eradication (Gardnerella vaginalis; vaginal ovules, rifaximin dose 3 mg, after 3 days): 88%
- Eradication (Gardnerella vaginalis; vaginal ovules, rifaximin dose 3 mg, after 7 days): 100%
- Eradication (Gardnerella vaginalis; vaginal ovules, rifaximin dose 6 mg, after 3 days): 88%
- Eradication (Gardnerella vaginalis; vaginal ovules, rifaximin dose 6 mg, after 7 days): 100%
- Eradication (Gardnerella vaginalis; vaginal ovules, rifaximin dose 12.5 mg, after 3 days): 100%
- Eradication (Gardnerella vaginalis; vaginal ovules, rifaximin dose 12.5 mg, after 7 days): 100%
- Eradication (Gardnerella vaginalis; vaginal tablets, rifaximin dose 1.5 mg, after 3 days): 88%
- Eradication (Gardnerella vaginalis; vaginal tablets, rifaximin dose 1.5 mg, after 7 days): 100%
- Eradication (Gardnerella vaginalis; vaginal tablets, rifaximin dose 3 mg, after 3 days): 63%
- Eradication (Gardnerella vaginalis; vaginal tablets, rifaximin dose 3 mg, after 7 days): 100%
- Eradication (Gardnerella vaginalis; vaginal tablets, rifaximin dose 6 mg, after 3 days): 88%
- Eradication (Gardnerella vaginalis; vaginal tablets, rifaximin dose 6 mg, after 7 days): 100%
- Eradication (Gardnerella vaginalis; vaginal tablets, rifaximin dose 12.5 mg, after 3 days): 100%
- Eradication (Gardnerella vaginalis; vaginal tablets, rifaximin dose 12.5 mg, after 7 days): 100%
